One data set addresses T1, σ1-receptor (Cavia porcellus, UniProt Q60492).
T1 construct: Guinea pig brains were homogenized in 10 vols; (w/v) of Tris-HCl 50 mM 0.32 M sucrose; from tissue; host or cells: guinea pig brain membranes
Briefly: σ1-receptor binding assay, [3H]-(+)-pentazocine, guinea pig brain membranes. Particulars: [3H]-(+)-pentazocine 5.0 nM; for % Displacement (10^−6 M): 10^−6 M compound. The protocol: Brain membrane preparation and binding assays for the σ1-receptor were performed as described (DeHaven-Hudkins, D. L., L.C. Fleissner, and F. Y. Ford-Rice, 1992, Characterization of the binding of [^3H](+)pentazocine to σ recognition sites in guinea pig brain, Eur. J. Pharmacol. 227, 371-378) with some modifications. Guinea pig brains were homogenized in 10 vols. (w/v) of Tris-HCl 50 mM 0.32 M sucrose, pH 7.4, with a Kinematica Polytron PT 3000 at 15000 r.p.m. for 30 s. The homogenate was centrifuged at 1000 g for 10 min at 4° C. and the supernatants collected and centrifuged again at 48000 g for 15 min at 4° C. The pellet was resuspended in 10 volumes of Tris-HCl buffer (50 mM, pH 7.4), incubated at 37° C. for 30 min, and centrifuged at 48000 g for 20 min at 4° C. Following this, the pellet was re-suspended in fresh Tris-HCl buffer (50 mM, pH 7.4) and stored on ice until use.
The radioligand used was [^3H]-(+)-pentazocine at 5.0 nM and the final volume was 200 μl. The incubation was initiated with the addition of 100 μA of membrane at a final tissue concentration of approximately 5 mg tissue net weight/mL and the incubation time was 150 m. at 37° C. After incubation, the membranes were collected onto pretreated glass fiber filterplate (MultiScreen-FC, Millipore), with polyethylenimine 0.1%. The filters were washed two times with 200 μA of washing buffer (50 mM Tris Cl, pH=7.4) and then 25 μA of Ecoscint H liquid scintillation cocktail were added. Microplates were allowed to set for several hours and then quantified by liquid scintillation spectrophotometry (1450 Microbeta, Wallac). Nonspecific binding was determined with 1 μM haloperidol.

This note sets out measurements from patent US8362011B2, “Tricyclic triazolic compounds” (Laboratories del Dr. Esteve, S.A., priority 2007, dated 2013).

Broadly, the Ki is a dissociation constant, usually derived from enzyme kinetics or from competition with a known ligand. Usually melting point stands for the temperature, or range, at which the solid turns liquid.

Several values for one entry are separate records, joined by “and”; a condition that tells them apart may be missing. Equal values may be shown once.

T1 sequence (Q60492 whole entry): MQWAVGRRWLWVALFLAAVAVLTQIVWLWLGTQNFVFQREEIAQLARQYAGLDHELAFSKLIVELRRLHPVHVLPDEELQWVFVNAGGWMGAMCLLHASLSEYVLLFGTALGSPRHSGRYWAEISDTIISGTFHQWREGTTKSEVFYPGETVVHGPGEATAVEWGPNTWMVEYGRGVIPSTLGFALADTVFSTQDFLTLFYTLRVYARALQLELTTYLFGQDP

At σ1-receptor, `COc1ccc(CN2C[C@@H]3[C@@H](C2)OCc2c(C)nnn23)cc1` (relative stereo) [Example 2, (5a,8a-trans)-7-(4-methoxybenzyl)-3-methyl-4,5a,6,7,8,8a-hexahydro pyrrolo[3,4-b][1,2,3]triazolo[1,5-d][1,4]oxazine] showed a Ki of more than 1000 nM.
The same measure, in the same setting: the figure for `CCc1nnn2c1CO[C@@H]1CN(Cc3ccc(OC)cc3)C[C@H]12` (relative stereo) [Example 3, (5a,8a-trans)-3-ethyl-7-(4-methoxybenzyl)-4,5a,6,7,8,8a-hexahydro pyrrolo[3,4-b][1,2,3]triazolo[1,5-d][1,4]oxazine] is 298 ± 76.2 nM.
The compound `c1ccc(CN2C[C@@H]3[C@@H](C2)OCc2cnnn23)cc1` (relative stereo) [Example 4, (5a,8a-trans)-7-benzyl-4,5a,6,7,8,8a-hexahydropyrrolo[3,4-b][1,2,3] triazolo[1,5-d][1,4]oxazine] came in with a melting point of 101 to 102 °C. Besides, the “% Displacement (10^−6 M)” value at σ1-receptor is on record as less than 50%.
For the compound `Cc1nnn2c1CO[C@@H]1CN(Cc3ccccc3)C[C@H]12` (relative stereo) [Example 5, (5a,8a-trans)-7-benzyl-3-methyl-4,5a,6,7,8,8a-hexahydropyrrolo[3,4-b][1,2,3]triazolo[1,5-d][1,4]oxazine], the melting point was 103 to 104 °C. Besides, the Ki on σ1-receptor was more than 1000 nM.
Compound `FC(F)(F)c1ccc(-c2nnn3c2CO[C@@H]2CN(Cc4ccccc4)C[C@H]23)cc1` (relative stereo) [Example 6, (5a,8a-trans)-7-benzyl-3-(4-(trifluoromethyl)phenyl)-4,5a,6,7,8,8a-hexa hydropyrrolo[3,4-b][1,2,3]triazolo[1,5-d][1,4]oxazine] showed a melting point of 137 to 138 °C. This compound also displayed an inhibitory constant (Ki) at σ1-receptor of 31.3 ± 8.7 nM.
As for `CCc1nnn2c1CO[C@@H]1CN(Cc3ccccc3)C[C@H]12` (relative stereo) [Example 8, (5a,8a-trans)-7-benzyl-3-ethyl-4,5a,6,7,8,8a-hexahydropyrrolo[3,4-b][1,2,3]triazolo[1,5-d][1,4]oxazine], the melting point lay in the range of 106 to 107 °C. Moreover, the Ki on σ1-receptor is 375 ± 1.6 nM.
On to `Clc1ccc(-c2nnn3c2CO[C@@H]2CN(Cc4ccccc4)C[C@H]23)cc1` (relative stereo) [Example 9, (5a,8a-trans)-7-benzyl-3-(4-chlorophenyl)-4,5a,6,7,8,8a-hexahydro pyrrolo[3,4-b][1,2,3]triazolo[1,5-d][1,4]oxazine], for which the melting point fell in the range of 197 to 198 °C. Moreover, on σ1-receptor, the “% Displacement (10^−6 M)” value is 87%.
`c1ccc(CN2C[C@@H]3[C@@H](C2)OCc2c(-c4ccccc4)nnn23)cc1` (relative stereo) [Example 11, (5a,8a-trans)-7-benzyl-3-phenyl-4,5a,6,7,8,8a-hexahydropyrrolo[3,4-b][1,2,3]triazolo[1,5-d][1,4]oxazine] showed a melting point of 154 to 155 °C. The compound further registered a Ki at σ1-receptor of 26.9 ± 4.4 nM.
For the compound `c1ccc(-c2nnn3c2CO[C@@H]2CNC[C@H]23)cc1` (relative stereo) [Example 13, (5a,8a-trans)-3-phenyl-4,5a,6,7,8,8a-hexahydropyrrolo[3,4-b][1,2,3] triazolo[1,5-d][1,4]oxazine], the melting point lay in the range of 165 to 167 °C. Further, the Ki on σ1-receptor was 283 nM and 262 nM.
`O=C(CCc1ccccc1)N1C[C@@H]2[C@@H](C1)OCc1c(-c3ccccc3)nnn12` (relative stereo) [Example 28, 3-phenyl-1-((5a,8a-trans)-3-phenyl-5a,6,8,8a-tetrahydropyrrolo[3,4-b][1,2,3]triazolo[1,5-d][1,4]oxazin-7(4H)-yl)propan-1-one] yielded a melting point of 205 to 206 °C. The affinity on σ1-receptor, expressed as Ki, was 563 nM.
Regarding `CCCC(=O)N1C[C@@H]2[C@@H](C1)OCc1c(-c3ccccc3)nnn12` (relative stereo) [Example 29, 1-((5a,8a-trans)-3-phenyl-5a,6,8,8a-tetrahydropyrrolo[3,4-b][1,2,3]triazolo[1,5-d][1,4]oxazin-7(4H)-yl)butan-1-one], the melting point was 202 to 204 °C. Besides, the inhibition constant Ki at σ1-receptor was 334 nM and 341 nM.
For the compound `CCCCCN1C[C@@H]2[C@@H](C1)OCc1c(-c3ccccc3)nnn12` (relative stereo) [Example 41, (5a,8a-trans)-7-pentyl-3-phenyl-4,5a,6,7,8,8a-hexahydropyrrolo[3,4-b][1,2,3]triazolo[1,5-d][1,4]oxazine], the Ki on σ1-receptor is 5.47 nM and 6.79 nM.
